According to publication PMC9118553, “In Vivo Bioconcentration of 10 Anionic Surfactants in Rainbow Trout Explained by In Vitro Data on Partitioning and S9 Clearance” (Environmental Science & Technology, 2022):
Several values for one entry are separate records, joined by “and”; a condition that tells them apart may be missing. Equal values may be shown once. Read-outs that look alike come from different tables or passages of the source. Marks after values point to notes of the source that are not given here.

What was measured:
[1] = cited from earlier work; for log DMW, membrane-water distribution ratio: marked * = measured, used for IVIVE, same values as Table 3
rainbow trout = assay: In vivo bioconcentration experiment with a mixture of anionic surfactants, flow-through aquaria, 10 °C, pH 7.8; details: for Log BCF: determined with measured concentrations in water; for Concentration in fish: individual fish; for diffusion coefficient (D) in the epithelial membrane of the gills: in vivo; for BCF (kinetic): kinetic BCF from measured concentrations in water
Description: The bioconcentration of a mixture of 10 anionic surfactants was measured in rainbow trout in water at pH 7.8. […] The experiment was conducted in flow-through aquaria with juvenile rainbow trout at 10 °C. Ethical approval for the experiments was obtained from Stockholms […] (decision 9967-2017). The fish, fish housing, fish handling, and procedure for introducing the mixture of […] chemicals were very similar to our previous study with cationic surfactants;[5] details are provided in Text S1. The experiment consisted of a 4-day exposure phase and a 7-day depuration phase. […] Water samples were collected and fish were sacrificed according to the schedule in Table S4. The water samples were collected just prior to the daily removal of feces from the aquarium. Triplicate samples were taken at each time point. […] The water/methanol mixture was analyzed using liquid chromatography-mass spectrometry (LC-MS)/MS as described below for fish. At each fish sampling, five fish were sacrificed. Following stunning and severance of the spinal cord, the whole fish were placed in a polyethylene bag, weighed, and immediately frozen at -20 °C. The weight of the individual fish at sacrifice was 24.0 ± 5.6 g. Three of the five fish from each time point were prioritized for analysis based on proximity to the median fish weight. Each fish was […] homogenized with an Ultra-turrax dispersing device. […] This mixture was homogenized in a bullet blender for 5 min and then placed in an ultrasound bath at 45 °C for 15 min. Following centrifugation for 15 min@3200 RCF, the supernatant was decanted and the extraction was repeated. The extracts were combined. For instrumental analysis, 5 μL of the fish extract or 60 μL of the water/methanol mixture (water samples) was separated on an Acquity UPLC BEH C18 column fitted with a BEH C18 pre-column and analyzed on a TSQ Quantiva triple quadrupole mass spectrometer. The mobile phase was methanol (10 mM ammonium acetate) and Milli-Q-filtered water (10 mM ammonium acetate) (see Table S5 for the liquid chromatography program). To avoid detergent blank peaks originating from cleaning mobile phase bottles, the methanol was prepared directly in the solvent bottle as delivered and Milli-Q was tapped into an empty methanol bottle. Furthermore, a guard column was fitted between the mobile phase and the autosampler to prevent background contamination from disturbing the analysis. All analytes were quantified against the BEHP internal standard, as it gave better reproducibility. […] The central goal of the analysis was to estimate kU and kT as well as the BCF (=kU/kT) from measurements of surfactant concentration in fish and water samples collected at different time points of the experiment. For the fish, only those time points were included for which CF(measured) was above the limit of quantitation (LOQ) in all three fish (data below the LOQ will have a positive bias; including them would result in a negative bias in kT). In this analysis, there exist two sources of uncertainty: first, uncertainty in the actual concentration in water CW at the time of sample collection and second, variability in the concentration in fish around the (expected) surfactant concentrations in fish assumed to follow model (1). We therefore set up a model in which we considered uncertainty in both water and fish measurements simultaneously by assuming a parametric model for the surfactant concentration in the water over time (either linear or quadratic) and accounted for the uncertainty in the corresponding parameters of the water model during the estimation of kU and kT. This was done in a joint Bayesian model that we estimated via Hamiltonian Monte Carlo. […]

[2] = determined using nominal concentrations in water
[3] = from measured concentrations in water, Bayesian estimate, 95% credible interval in brackets
[4] = 95% credible interval in brackets
[5] = measured concentrations in water, simpler estimation method (Text S3), 95% confidence intervals in brackets

Row | BCF (rainbow trout; [2]) [L kg-1 ww] | Elimination rate constant kT (rainbow trout; [2]) [h⁻¹] | Uptake rate constant kU (rainbow trout; [2]) [L/kg/h] | Log BCF (rainbow trout) [L kg-1 ww] | Compound | log DMW, membrane-water distribution ratio [1] | Concentration in fish (rainbow trout; elimination phase, 97 h) | Concentration in fish (rainbow trout; elimination phase, 98 h) | Concentration in fish (rainbow trout; elimination phase, 100 h) | Concentration in fish (rainbow trout; elimination phase, 103 h) | Concentration in fish (rainbow trout; elimination phase, 120 h) | Concentration in fish (rainbow trout; elimination phase, 128 h) | Concentration in fish (rainbow trout; elimination phase, 144 h) | Concentration in fish (rainbow trout; elimination phase, 168 h) | Concentration in fish (rainbow trout; elimination phase, 192 h) | Concentration in fish (rainbow trout; elimination phase, 264 h) | Concentration in fish (rainbow trout; exposure phase, 1 h) | Concentration in fish (rainbow trout; exposure phase, 2 h) | Concentration in fish (rainbow trout; exposure phase, 3 h) | Concentration in fish (rainbow trout; exposure phase, 4 h) | Concentration in fish (rainbow trout; exposure phase, 6 h) | also measured
1 | 1.42 | 0.114 | 0.162 | -0.05 | CCCCCCCCCCCCOCCOCCOCCOCCOS(=O)(=O)O [C12-EO4-SO4, dodecyltetraethoxysulfate] | 4.24 | 35 ng g-1 ww and 26 ng g-1 ww and 27 ng g-1 ww | 17.6 ng g-1 ww and 19.9 ng g-1 ww and 15.8 ng g-1 ww | 35.9 ng g-1 ww and 14.4 ng g-1 ww and 21 ng g-1 ww | 11.6 ng g-1 ww and 16.1 ng g-1 ww and 15.1 ng g-1 ww | 7.0 ng g-1 ww and 8.6 ng g-1 ww and 3.1 ng g-1 ww | 5.5 ng g-1 ww and 7.5 ng g-1 ww and 4.5 ng g-1 ww | 4.7 ng g-1 ww and 5.3 ng g-1 ww and 4.5 ng g-1 ww | 4.1 ng g-1 ww and 2.7 ng g-1 ww and 1.8 ng g-1 ww | 1.6 ng g-1 ww and 3.6 ng g-1 ww and 1.8 ng g-1 ww | 3.3 ng g-1 ww and 2.4 ng g-1 ww and 1.5 ng g-1 ww | 4.3 ng g-1 ww and 6.7 ng g-1 ww and 6.6 ng g-1 ww | 6.7 ng g-1 ww and 8.9 ng g-1 ww and 6.4 ng g-1 ww | 12.1 ng g-1 ww and 10.4 ng g-1 ww and 10.6 ng g-1 ww | 14.5 ng g-1 ww and 16.2 ng g-1 ww and 14.2 ng g-1 ww | 23 ng g-1 ww and 18.6 ng g-1 ww and 13.5 ng g-1 ww | log DMLW ([1]; measurement from Droge et al.): 4.24 ^f L kg^–1; Concentration in fish (rainbow trout; exposure phase, 24 h): 24 ng g-1 ww and 34 ng g-1 ww and 23 ng g-1 ww; Concentration in fish (rainbow trout; exposure phase, 48 h): 26 ng g-1 ww and 33 ng g-1 ww and 38 ng g-1 ww; Concentration in fish (rainbow trout; exposure phase, 72 h): 30 ng g-1 ww and 39 ng g-1 ww and 35 ng g-1 ww; Concentration in fish (rainbow trout; exposure phase, 96 h): 45 ng g-1 ww and 27 ng g-1 ww and 42 ng g-1 ww; Elimination rate constant kT (rainbow trout; [3]): 0.100 (0.083–0.120) h^–1; Uptake rate constant kU (rainbow trout; [3]): 0.090 (0.074–0.109) L kg^–1 ww h^–1; diffusion coefficient (D) in the epithelial membrane of the gills (rainbow trout): 2.0 × 10^–8 m h^–1; BCF (kinetic) (rainbow trout; [4]): 0.89 (0.80–1.01) L kg^–1 ww; BCF (rainbow trout; [5]): 0.92 (29) L kg-1 ww; Elimination rate constant kT (rainbow trout; [5]): 0.098 (26) h-1; Uptake rate constant kU (rainbow trout; [5]): 0.090 (12) L kg-1 ww h-1
2 | 3.9 | 0.065 | 0.25 | 0.65 | CCCCCCCCCCCCCS(=O)(=O)O [C13SO3, tridecylsulfonate] | 4.46 | 15.7 ng g-1 ww and 14.6 ng g-1 ww and 19.2 ng g-1 ww | 14.6 ng g-1 ww and 12.4 ng g-1 ww and 14.8 ng g-1 ww | 33 ng g-1 ww and 10.3 ng g-1 ww and 12.1 ng g-1 ww | 10.0 ng g-1 ww and 23 ng g-1 ww and 11.1 ng g-1 ww | 6.4 ng g-1 ww and 4.3 ng g-1 ww and 2.9 ng g-1 ww | 2.8 ng g-1 ww and 2.3 ng g-1 ww and 4.9 ng g-1 ww | 1.63 ng g-1 ww and 1.18 ng g-1 ww and 1.59 ng g-1 ww | 0.83 ng g-1 ww and 1.89 ng g-1 ww and 0.64 ng g-1 ww | 0.40 ng g-1 ww and 0.33 ng g-1 ww and 0.60 ng g-1 ww | 0.30 ng g-1 ww and 0.13 ng g-1 ww and 0.02 ng g-1 ww | 15.3 ng g-1 ww and 2.5 ng g-1 ww and 35 ng g-1 ww | 3.2 ng g-1 ww and 3.0 ng g-1 ww and 2.3 ng g-1 ww | 4.7 ng g-1 ww and 5.8 ng g-1 ww and 4.5 ng g-1 ww | 8.1 ng g-1 ww and 54 ng g-1 ww and 202 ng g-1 ww | 10.5 ng g-1 ww and 10.3 ng g-1 ww and 8.5 ng g-1 ww | log DMLW ([1]; measurement from Droge): 4.46 ^e L kg^–1; Concentration in fish (rainbow trout; exposure phase, 24 h): 24 ng g-1 ww and 21 ng g-1 ww and 17.0 ng g-1 ww; Concentration in fish (rainbow trout; exposure phase, 48 h): 19.4 ng g-1 ww and 20 ng g-1 ww and 17.1 ng g-1 ww; Concentration in fish (rainbow trout; exposure phase, 72 h): 30 ng g-1 ww and 16.7 ng g-1 ww and 15.0 ng g-1 ww; Concentration in fish (rainbow trout; exposure phase, 96 h): 22 ng g-1 ww and 19.7 ng g-1 ww and 28 ng g-1 ww; Elimination rate constant kT (rainbow trout; [3]): 0.057 (0.052–0.062) h^–1; Uptake rate constant kU (rainbow trout; [3]): 0.25 (0.22–0.29) L kg^–1 ww h^–1; diffusion coefficient (D) in the epithelial membrane of the gills (rainbow trout): 3.5 × 10^–8 m h^–1; BCF (kinetic) (rainbow trout; [4]): 4.5 (4.1–5.0) L kg^–1 ww; BCF (rainbow trout; [5]): 4.3 (12) L kg-1 ww; Elimination rate constant kT (rainbow trout; [5]): 0.057 (7) h-1
3 | 31 | 0.074 | 2.29 | 1.53 | CCCCCCCCCCCCCOS(=O)(=O)O [C13SO4, tridecylsulfate] | 5.21 | 99 ng g-1 ww and 120 ng g-1 ww and 148 ng g-1 ww | 111 ng g-1 ww and 104 ng g-1 ww and 80 ng g-1 ww | 104 ng g-1 ww and 78 ng g-1 ww and 80 ng g-1 ww | 58 ng g-1 ww and 80 ng g-1 ww and 82 ng g-1 ww | 32 ng g-1 ww and 40 ng g-1 ww and 25 ng g-1 ww | 21 ng g-1 ww (2×) and 29 ng g-1 ww | 14.4 ng g-1 ww and 11.1 ng g-1 ww and 13.5 ng g-1 ww | 12.9 ng g-1 ww and 6.4 ng g-1 ww and 7.3 ng g-1 ww | 4.0 ng g-1 ww and 4.7 ng g-1 ww and 3.9 ng g-1 ww | 3.8 ng g-1 ww and 2.1 ng g-1 ww and 1.7 ng g-1 ww | 34 ng g-1 ww and 28 ng g-1 ww and 54 ng g-1 ww | 40 ng g-1 ww and 42 ng g-1 ww and 27 ng g-1 ww | 61 ng g-1 ww and 67 ng g-1 ww and 60 ng g-1 ww | 88 ng g-1 ww and 108 ng g-1 ww and 187 ng g-1 ww | 139 ng g-1 ww and 132 ng g-1 ww and 97 ng g-1 ww | log DMLW ([1]; measurement from Droge): 5.21 ^e L kg^–1; Concentration in fish (rainbow trout; exposure phase, 24 h): 255 ng g-1 ww (2×) and 188 ng g-1 ww; Concentration in fish (rainbow trout; exposure phase, 48 h): 140 ng g-1 ww and 234 ng g-1 ww and 190 ng g-1 ww; Concentration in fish (rainbow trout; exposure phase, 72 h): 201 ng g-1 ww and 154 ng g-1 ww and 128 ng g-1 ww; Concentration in fish (rainbow trout; exposure phase, 96 h): 175 ng g-1 ww and 150 ng g-1 ww and 275 ng g-1 ww; Elimination rate constant kT (rainbow trout; [3]): 0.048 (0.043–0.053) h^–1; Uptake rate constant kU (rainbow trout; [3]): 1.62 (1.38–1.91) L kg^–1 ww h^–1; diffusion coefficient (D) in the epithelial membrane of the gills (rainbow trout): 3.9 × 10^–8 m h^–1; BCF (kinetic) (rainbow trout; [4]): 34 (29–40) L kg^–1 ww; BCF (rainbow trout; [5]): 31 (16) L kg-1 ww; Elimination rate constant kT (rainbow trout; [5]): 0.053 (7) h-1; Uptake rate constant kU (rainbow trout; [5]): 1.64 (15) L kg-1 ww h-1; BCF (rainbow trout; own values): 34 L kg^–1
